# Laboratory results from patent publication US4943581A, “Isoquinolinesulfonamides” (Hokuriku Pharmaceutical Co., Ltd., priority 1988, dated 1990).
# Counter-ions that a name gives are not always drawn.
# Experiments:
# [1] = target: T1, myosin light-chain kinase (Gallus gallus, UniProt P11799); test: Inhibition of myosin light-chain kinase (32P incorporation from [γ-32P] ATP into myosin light chain); type: biochemical; details: enzymatic activity depression of 50%; chicken gizzard; 200 μM CaCl2, 80 ng calmodulin, pH 7.0, 30 °C
# T1 construct: myosin light chain kinase (prepared from the smooth muscles of chicken gizzard); from tissue; host or cells: smooth muscle of chicken gizzard (kinase); cattle brain (calmodulin)
# T1 sequence (P11799 935-1906): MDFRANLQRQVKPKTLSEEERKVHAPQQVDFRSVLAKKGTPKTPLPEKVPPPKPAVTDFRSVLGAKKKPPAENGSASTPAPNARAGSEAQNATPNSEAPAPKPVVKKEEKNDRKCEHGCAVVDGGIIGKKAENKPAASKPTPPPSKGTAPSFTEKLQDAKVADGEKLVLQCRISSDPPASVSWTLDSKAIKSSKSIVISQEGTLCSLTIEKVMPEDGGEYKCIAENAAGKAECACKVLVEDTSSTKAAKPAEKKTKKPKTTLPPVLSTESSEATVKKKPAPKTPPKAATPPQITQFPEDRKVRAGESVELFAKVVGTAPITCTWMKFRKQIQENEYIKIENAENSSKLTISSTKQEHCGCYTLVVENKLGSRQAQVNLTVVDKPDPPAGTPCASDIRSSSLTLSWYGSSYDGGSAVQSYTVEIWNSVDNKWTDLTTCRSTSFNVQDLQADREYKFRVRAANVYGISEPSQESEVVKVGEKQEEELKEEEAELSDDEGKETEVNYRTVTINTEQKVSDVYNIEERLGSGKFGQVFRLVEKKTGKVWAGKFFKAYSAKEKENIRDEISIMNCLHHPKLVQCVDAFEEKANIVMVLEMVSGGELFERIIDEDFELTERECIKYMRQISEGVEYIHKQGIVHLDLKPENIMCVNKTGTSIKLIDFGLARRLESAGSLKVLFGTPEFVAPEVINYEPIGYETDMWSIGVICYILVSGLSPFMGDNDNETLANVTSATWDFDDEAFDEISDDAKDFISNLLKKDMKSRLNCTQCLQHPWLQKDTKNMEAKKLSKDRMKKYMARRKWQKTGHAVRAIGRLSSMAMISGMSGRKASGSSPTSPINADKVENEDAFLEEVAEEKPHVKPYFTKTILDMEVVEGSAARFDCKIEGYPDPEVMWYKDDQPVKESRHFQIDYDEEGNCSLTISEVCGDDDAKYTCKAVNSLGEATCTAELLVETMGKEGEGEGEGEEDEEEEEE
# Protocol: A myosin light chain of the smooth muscles of chicken gizzard was used as a substrate and the amount of radioactive phosphoric acid incorporated from [γ-32P] ATP into the substrate-protein was measured for a determination of the activity of the enzyme. The reaction solution, in an amount of 200 μl as a whole, was constituted from 25 mM of Tris-HCl(pH 7.0), 10 mM MgCl2, 40 μg of myosin light chain (obtained by preparing myosin from the smooth muscle of chicken gizzard followed by guanidine denaturization), 200 μM of CaCl2, 80 ng of calmodulin (prepared from cattle brain), myosin light chain kinase (prepared from the smooth muscles of chicken gizzard), and agents of various concentrations. The reaction was started by the addition of 20 μl of 100 μM [γ-32P] ATP at 30 ° C., and stopped by the addition of 0.5 ml of 20% TCA. After the reaction was stopped, 3 ml of 5% TCA and 0.1 ml of 1 mg/ml albumin solution were added into the reaction mixture, the resulting solution was centrifuged, and the obtained acid-insoluble protein was fixed on the bottom of a test tube. Further, the supernatant was removed, 3 ml of 5% TCA was added into the residue, and the solution was centrifuged. […] The precipitated protein was dissolved with 2 ml of 1 N NaOH, transferred to a vial containing about 10 ml of water, and measured for Cherenkov effect by a liquid scintillation counter. […]
# [2] = tested on: smooth muscle of the blood vessel (superior mesenteric artery); test: Relaxation effect on smooth muscle of blood vessel (spiral specimen of superior mesenteric artery contracted with 20 mM KCl); details: Oryctolagus cuniculus; concentration giving 50% relaxation; contraction induced by 20 mM KCl taken as 100%; 37°±0.5° C.; rabbit superior mesenteric artery; read-out: ED50 (the source's name)
# Protocol: The extracted blood vessels were cut in the usual way into the form of spirals, and a specimen of 1.5-2.5 mm in width and 20-30 mm in length was formed. The spiral specimen was suspended in 20 ml organ bath comprising Krebs-Henseleit's solution, after which a tension of 2.0-0.5 g was loaded. The nutrient solution was warmed at 37°±0.5° C. and ventilated by mixed gas of 95% oxygen and 5% carbon dioxide. The lower end was fixed, whereas the upper end was attached to a force-displacement transducer (SB-1T) manufactured by Nihon Koden Company. The change of tension was recorded isometrically. The specimen was suspended for at least 60 minutes before the test was begun, and the nutrient solution was exchanged every 15 minutes to conduct the experiment in the meantime.
# The relaxation effect upon the smooth muscle of the blood vessel was tested. Previously, the spiral specimen had been contracted with 20 mM of KCl and maintained at a certain tension; thereafter the test agent was added cumulatively. Contraction induced by 20 mM KCl was taken as 100% and the relaxation effect of the test agent was represented by ED50 which was the concentration of the agent at which only 50% of the muscles remained shrunken.
smiles,measurement,setting,value
"NCCNS(=O)(=O)c1ccc(Cl)c2ccncc12 [Example 1, N-(2-Aminoethyl)-5-chloroisoquinoline-8-sulfonamide 2 hydrochloride]",IC50,[1],31 µM
same,EC50,[2],32 µM
